System: 233499-124-R-J3-PDC complex spheroid growth
Assay: Anticancer human tumor 233499-124-R-J3-PDC patient-derived colon adenocarcinoma cell line growth inhibition [AhR]
Conditions: for IC50: curve of first compound; for viability, T/C: stronger effect = lower value
Outline: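 Spheroids combined tumor cells with HUVEC endothelial cells and human MSCs as stroma. AhR antagonists were paired with standard or investigational drugs, each dosed in half-log steps down from near clinical Cmax, or from 10 microM where Cmax was unknown.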

[1] = second compound 0.1 µM, first compound 0.0316 µM
[2] = second compound 0.1 µM, first compound 0.1 µM
[3] = second compound 0.1 µM, first compound 0.316 µM
[4] = second compound 0.1 µM, first compound 1 µM
[5] = second compound 0.316 µM, first compound 0.0316 µM
[6] = second compound 0.316 µM, first compound 0.1 µM
[7] = second compound 0.316 µM, first compound 0.316 µM
[8] = second compound 0.316 µM, first compound 1 µM
[9] = second compound 1 µM, first compound 0.0316 µM
[10] = second compound 1 µM, first compound 0.1 µM
[11] = second compound 1 µM, first compound 0.316 µM
[12] = second compound 1 µM, first compound 1 µM
[13] = second compound 3.16 µM, first compound 0.0316 µM
[14] = second compound 3.16 µM, first compound 0.1 µM
[15] = second compound 3.16 µM, first compound 0.316 µM
[16] = second compound 3.16 µM, first compound 1 µM
[17] = second compound 10 µM, first compound 0.0316 µM
[18] = second compound 10 µM, first compound 0.1 µM
[19] = second compound 10 µM, first compound 0.316 µM
[20] = second compound 10 µM, first compound 1 µM
[21] = second compound 0.1 µM, first compound 3.16 µM
[22] = second compound 0.1 µM, first compound 10 µM
[23] = second compound 0.316 µM, first compound 3.16 µM
[24] = second compound 0.316 µM, first compound 10 µM
[25] = second compound 1 µM, first compound 3.16 µM
[26] = second compound 1 µM, first compound 10 µM
[27] = second compound 3.16 µM, first compound 3.16 µM
[28] = second compound 3.16 µM, first compound 10 µM
[29] = second compound 10 µM, first compound 3.16 µM
[30] = second compound 10 µM, first compound 10 µM
[31] = second compound 0.1 µM, first compound 0.00949 µM
[32] = second compound 0.1 µM, first compound 0.03 µM
[33] = second compound 0.1 µM, first compound 0.0949 µM
[34] = second compound 0.1 µM, first compound 0.3 µM
[35] = second compound 0.316 µM, first compound 0.00949 µM
[36] = second compound 0.316 µM, first compound 0.03 µM
[37] = second compound 0.316 µM, first compound 0.0949 µM
[38] = second compound 0.316 µM, first compound 0.3 µM
[39] = second compound 1 µM, first compound 0.00949 µM
[40] = second compound 1 µM, first compound 0.03 µM
[41] = second compound 1 µM, first compound 0.0949 µM
[42] = second compound 1 µM, first compound 0.3 µM
[43] = second compound 3.16 µM, first compound 0.00949 µM
[44] = second compound 3.16 µM, first compound 0.03 µM
[45] = second compound 3.16 µM, first compound 0.0949 µM
[46] = second compound 3.16 µM, first compound 0.3 µM
[47] = second compound 10 µM, first compound 0.00949 µM
[48] = second compound 10 µM, first compound 0.03 µM
[49] = second compound 10 µM, first compound 0.0949 µM
[50] = second compound 10 µM, first compound 0.3 µM
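Also: spheroids exposed to agents for seven days before reading.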

In the case of `CC1COCCN1c1cc(-c2ccnn2C)c2ccnc(-c3ccn[nH]3)c2n1` (stereo not given) + Cc1ccccc1N=Nc1ccc(NC(=O)c2ccnn2C)c(C)c1, the IC50 (second compound 0.1 µM) is reported as > 1 µM, the IC50 (second compound 0.316 µM) is reported as > 1 µM and the IC50 (second compound 1 µM) is reported as 0.984 µM. For the same compound, the IC50 (second compound 3.16 µM) was > 1 µM, the IC50 (second compound 10 µM) was > 1 µM and the viability, T/C (second compound 0.1 µM, first compound 0.00316 µM) was 91.3%. The viability, T/C (second compound 0.1 µM, first compound 0.01 µM) was 98.8%, the viability, T/C [1] was 105% and the viability, T/C [2] was 93.9%. It also gave a viability, T/C [3] of 68.2%, a viability, T/C [4] of 55.1% and a viability, T/C (second compound 0.316 µM, first compound 0.00316 µM) of 99.4%. It also gave a viability, T/C (second compound 0.316 µM, first compound 0.01 µM) of 93.9%, a viability, T/C [5] of 92.2% and a viability, T/C [6] of 92.3%. The viability, T/C [7] was 75%, the viability, T/C [8] was 50.7% and the viability, T/C (second compound 1 µM, first compound 0.00316 µM) was 87.1%. For the same compound, the viability, T/C (second compound 1 µM, first compound 0.01 µM) was 97.1%, the viability, T/C [9] was 85.6% and the viability, T/C [10] was 91.8%. The viability, T/C [11] was 81.6%, the viability, T/C [12] was 49.3% and the viability, T/C (second compound 3.16 µM, first compound 0.00316 µM) was 91.8%. The viability, T/C (second compound 3.16 µM, first compound 0.01 µM) was 103%, the viability, T/C [13] was 85% and the viability, T/C [14] was 74%. The viability, T/C [15] was 57.2%, the viability, T/C [16] was 58% and the viability, T/C (second compound 10 µM, first compound 0.00316 µM) was 103%. It also gave a viability, T/C (second compound 10 µM, first compound 0.01 µM) of 99.3%, a viability, T/C [17] of 101% and a viability, T/C [18] of 80.5%. For the same compound, the viability, T/C [19] was 74.5% and the viability, T/C [20] was 58.7%.
For `CC1COCCN1c1cc(C2(S(C)(=N)=O)CC2)nc(-c2ccnc3[nH]ccc23)n1` (stereo not given) + Cc1ccccc1N=Nc1ccc(NC(=O)c2ccnn2C)c(C)c1, the IC50 (second compound 0.1 µM) was > 10 µM, the IC50 (second compound 0.316 µM) was > 10 µM and the IC50 (second compound 1 µM) was > 10 µM. The IC50 (second compound 3.16 µM) was > 10 µM, the IC50 (second compound 10 µM) was > 10 µM and the viability, T/C [1] was 103%. The viability, T/C [2] was 112%, the viability, T/C [3] was 91.2% and the viability, T/C [4] was 97.8%. It also gave a viability, T/C [21] of 88.8%, a viability, T/C [22] of 91% and a viability, T/C [5] of 113%. For the same compound, the viability, T/C [6] was 107%, the viability, T/C [7] was 94.5% and the viability, T/C [8] was 99.7%. It also gave a viability, T/C [23] of 96.6%, a viability, T/C [24] of 85% and a viability, T/C [9] of 103%. The viability, T/C [10] was 100%, the viability, T/C [11] was 104% and the viability, T/C [12] was 97.6%. The viability, T/C [25] was 77.7%, the viability, T/C [26] was 74.2% and the viability, T/C [13] was 112%. For the same compound, the viability, T/C [14] was 110%, the viability, T/C [15] was 105% and the viability, T/C [16] was 101%. It also gave a viability, T/C [27] of 99.7%, a viability, T/C [28] of 84.1% and a viability, T/C [17] of 108%. It also gave a viability, T/C [18] of 107%, a viability, T/C [19] of 118% and a viability, T/C [20] of 106%. The viability, T/C [29] was 109% and the viability, T/C [30] was 77.8%.
With `COc1ccc([C@@H](O)c2cc(-c3ncnc4cc(N5CCOCC5)ccc34)c(F)cc2Cl)nn1` + Cc1ccccc1N=Nc1ccc(NC(=O)c2ccnn2C)c(C)c1 the IC50 (second compound 0.1 µM) was > 10 µM, the IC50 (second compound 0.316 µM) was > 10 µM and the IC50 (second compound 1 µM) was > 10 µM. The IC50 (second compound 3.16 µM) was > 10 µM, the IC50 (second compound 10 µM) was > 10 µM and the viability, T/C [1] was 90.3%. The viability, T/C [2] was 98.9%, the viability, T/C [3] was 96.8% and the viability, T/C [4] was 104%. It also gave a viability, T/C [21] of 101%, a viability, T/C [22] of 89.2% and a viability, T/C [5] of 97.3%. The viability, T/C [6] was 101%, the viability, T/C [7] was 86.3% and the viability, T/C [8] was 102%. The viability, T/C [23] was 92%, the viability, T/C [24] was 63.6% and the viability, T/C [9] was 104%. The viability, T/C [10] was 98.4%, the viability, T/C [11] was 102% and the viability, T/C [12] was 95.7%. The viability, T/C [25] was 85.5%, the viability, T/C [26] was 90.2% and the viability, T/C [13] was 99.5%. The viability, T/C [14] was 101%, the viability, T/C [15] was 93.5% and the viability, T/C [16] was 97.8%. For the same compound, the viability, T/C [27] was 92.2%, the viability, T/C [28] was 76.3% and the viability, T/C [17] was 90.5%. It also gave a viability, T/C [18] of 90.3%, a viability, T/C [19] of 85.6% and a viability, T/C [20] of 94.6%. It also gave a viability, T/C [29] of 91.4% and a viability, T/C [30] of 60.6%.
`Nc1ncn(C2CC(O)C(CO)S2)c(=O)n1` (stereo not given) + Cc1ccccc1N=Nc1ccc(NC(=O)c2ccnn2C)c(C)c1 was tested, and the IC50 (second compound 0.1 µM) was > 0.3 µM, the IC50 (second compound 0.316 µM) was > 0.3 µM and the IC50 (second compound 1 µM) was > 0.3 µM. For the same compound, the IC50 (second compound 3.16 µM) was > 0.3 µM, the IC50 (second compound 10 µM) was > 0.3 µM and the viability, T/C (second compound 0.1 µM, first compound 0.000949 µM) was 91.9%. The viability, T/C (second compound 0.1 µM, first compound 0.003 µM) was 103%, the viability, T/C [31] was 87.7% and the viability, T/C [32] was 108%. It also gave a viability, T/C [33] of 109%, a viability, T/C [34] of 111% and a viability, T/C (second compound 0.316 µM, first compound 0.000949 µM) of 99.1%. It also gave a viability, T/C (second compound 0.316 µM, first compound 0.003 µM) of 114%, a viability, T/C [35] of 96.3% and a viability, T/C [36] of 107%. For the same compound, the viability, T/C [37] was 105%, the viability, T/C [38] was 84.7% and the viability, T/C (second compound 1 µM, first compound 0.000949 µM) was 110%. It also gave a viability, T/C (second compound 1 µM, first compound 0.003 µM) of 114%, a viability, T/C [39] of 95% and a viability, T/C [40] of 114%. The viability, T/C [41] was 116%, the viability, T/C [42] was 101% and the viability, T/C (second compound 3.16 µM, first compound 0.000949 µM) was 101%. For the same compound, the viability, T/C (second compound 3.16 µM, first compound 0.003 µM) was 108%, the viability, T/C [43] was 107% and the viability, T/C [44] was 107%. The viability, T/C [45] was 109%, the viability, T/C [46] was 107% and the viability, T/C (second compound 10 µM, first compound 0.000949 µM) was 104%. For the same compound, the viability, T/C (second compound 10 µM, first compound 0.003 µM) was 99.3%, the viability, T/C [47] was 107% and the viability, T/C [48] was 113%. It also gave a viability, T/C [49] of 94.8% and a viability, T/C [50] of 99.3%.
With `O=C(C=Cn1cnc(-c2cc(C(F)(F)F)cc(C(F)(F)F)c2)n1)NNc1cnccn1` + Cc1ccccc1N=Nc1ccc(NC(=O)c2ccnn2C)c(C)c1 the IC50 (second compound 0.1 µM) was > 3 µM, the IC50 (second compound 0.316 µM) was > 3 µM and the IC50 (second compound 1 µM) was > 3 µM. The IC50 (second compound 3.16 µM) was > 3 µM, the IC50 (second compound 10 µM) was > 3 µM and the viability, T/C [31] was 109%. It also gave a viability, T/C [32] of 91.2%, a viability, T/C [33] of 110% and a viability, T/C [34] of 86.7%. The viability, T/C (second compound 0.1 µM, first compound 0.949 µM) was 96%, the viability, T/C (second compound 0.1 µM, first compound 3 µM) was 61% and the viability, T/C [35] was 104%. The viability, T/C [36] was 113%, the viability, T/C [37] was 111% and the viability, T/C [38] was 96.4%. The viability, T/C (second compound 0.316 µM, first compound 0.949 µM) was 87.3%, the viability, T/C (second compound 0.316 µM, first compound 3 µM) was 76.8% and the viability, T/C [39] was 97.8%. It also gave a viability, T/C [40] of 98.3%, a viability, T/C [41] of 116% and a viability, T/C [42] of 100%. The viability, T/C (second compound 1 µM, first compound 0.949 µM) was 78%, the viability, T/C (second compound 1 µM, first compound 3 µM) was 77.8% and the viability, T/C [43] was 98%. It also gave a viability, T/C [44] of 99.1%, a viability, T/C [45] of 92.8% and a viability, T/C [46] of 86.8%. It also gave a viability, T/C (second compound 3.16 µM, first compound 0.949 µM) of 93.2%, a viability, T/C (second compound 3.16 µM, first compound 3 µM) of 70.8% and a viability, T/C [47] of 101%. The viability, T/C [48] was 85%, the viability, T/C [49] was 85.3% and the viability, T/C [50] was 108%. For the same compound, the viability, T/C (second compound 10 µM, first compound 0.949 µM) was 85.6% and the viability, T/C (second compound 10 µM, first compound 3 µM) was 50.2%.

Source: PubChem BioAssay AID1918993 (Molecular Pharmacology Branch, DTP, NCI, 2023)
